According to patent US20240034743A9, “TRICYCLIC COMPOUNDS AS EGFR INHIBITORS” (QILU PHARMACEUTICAL CO., LTD., priority 2020, published 2024):
Read-outs that look alike come from different tables or passages of the source.

How the values were obtained:
EGFR WT (wild type EGFR) = EGFR WT (wild type EGFR) (Homo sapiens (Human), UniProt P00533); test: In vitro enzymatic TR-FRET (HTRF KinEASE-TK) kinase assay, EGFR WT; format: biochemical; details: kinase activity, TR-FRET; read-out: EGFR (WT) IC50
Method: (I) In Vitro Enzymatic Experiment for EGFR WT and EGFR L858R/T790M/C797S
In the assay, the inhibition effect of the compound on the kinase activity of EGFR WT (wild type EGFR) and EGFR L858R/T790M/C797S was tested by adopting a time-resolved fluorescence resonance energy transfer (TR-FRET) method, and half maximal inhibitory concentration IC50 of the compound on the kinase activity of EGFR was obtained.
EGFR recombinase and EGFR L858R/T790M/C797S recombinase, purchased from Signalchem.
HTRF KinEASE-TK kit, purchased from Cisbio.
DTT, MnCl2, and MgCl2, purchased from Sigma.
ATP, purchased from Promega.
(§1) Brigatinib, purchased from Selleck.
1) 1× working solution was prepared: 5 mM MgCl2; 1 mM DTT; 1 mM MnCl2 and 1× kinase buffer (in kit).
2) […] of gradiently-diluted compound was transferred to a 384-well plate using Echo 550 (Labcyte).
3) 5 μL of 2× EGFR WT or EGFR L858R/T790M/C797S recombinase solution was added to the 384-well plate, and the plate was incubated at room temperature for 10 min.
4) 5 μL of 2× TK-substrate-biotin substrate solution (containing ATP) was added to the 384-well plate, and the plate was incubated at room temperature for 40 min.
5) 5 μL of assay solution containing Sa-XL 665 HTRF and 5 μL of TK-antibody-Cryptatewas were added to the plate, and the plate was incubated at room temperature for 1 h.
6) The fluorescence signal values at 615 nm and 665 nm were measured for each well using an Envision microplate reader (PerkinElmer).
7) The ratio of fluorescence signal values at 665 nm and 615 nm was calculated for each well.
8) Data analysis was performed using GraphPad Prism software to give the IC50 for compounds.

[1] = tested on: Ba/F3_L858R/T790M/C797S cells; test: Ba/F3_L858R/T790M/C797S cell proliferation inhibition assay (CellTiter-Glo); format: cell-based; details: Mus musculus
Method: Ba/F3_L858R/T790M/C797S Cell Proliferation Inhibition Assay
In the assay, the inhibition effect of the compounds on the proliferation of Ba/F3_L858R/T790M/C797S cells was tested by adopting a CellTiter-Glo method, and the concentration IC50 of the compound for inhibiting half maximal growth of cells was obtained.
Ba/F3_L858R/T790M/C797S cells were constructed by Pharmaron Beijing Co., Ltd.
1640 medium, fetal bovine serum (FBS), Penicillin-Streptomyces, and GlutaMAX-I Supplement, purchased from GIBCO.
as §1
(§2) CellTiter-Glo reagent, purchased from Promega.
1) Ba/F3_L858R/T790M/C797S cells were seeded in a 384-well plate at a density of 700 cells/well with 30 μL/well.
(§3) 2) Day 0: […] of gradiently-diluted compounds to be tested with a final concentration of DMSO of 0.1% was added to plate using Echo, and the plate was incubated in a cell incubator for 72 h (37° C., 5% CO2). […] of DMSO was added into each well in blank control group.
(§4) 3) Day 3: 30 μL Cell Titer-Glo reagent was added to each well, and the plate was in the dark under room temperature for 30 min.
(§5) 4) The chemiluminescent signal was detected by an Envision plate reader (PerkinElmer).
(§6) 5) Data analysis was performed using GraphPad Prism software to give the IC50 for compounds.

A431 cells (EGFR WT) = test: A431 cell proliferation inhibition assay (CellTiter-Glo); format: cell-based; details: Homo sapiens
Method: A431 Cell Proliferation Inhibition Assay
In the assay, the inhibition effect of the compounds on the proliferation of A431 cells was tested by adopting a CellTiter-Glo method, and the concentration IC50 of the compound for inhibiting half maximal growth of cells was obtained.
A431 cells, purchased from ATCC.
DMEM medium, fetal bovine serum (FBS), and Penicillin-Streptomycin, purchased from GIBCO.
as §1, §2
1) A431 cells were seeded in a 384-well plate at a density of 800 cells/well with 30 μL/well, and the plate was cultured in a cell incubator for 24 h (37° C., 5% CO2).
as §3, §4, §5, §6

[2] = tested on: Ba/F3_Del19/T790M/C797S cells; test: Ba/F3_Del19/T790M/C797S cell proliferation inhibition assay (CellTiter-Glo); format: cell-based; details: Mus musculus
Method: Ba/F3_Del19/T790M/C797S Cell Proliferation Inhibition Assay
In the assay, the inhibition effect of the compounds on the proliferation of Ba/F3_Del19/T790M/C797S cells was tested by adopting a CellTiter-Glo method, and the concentration IC50 of the compound for inhibiting half maximal growth of cells was obtained.
Ba/F3_Del19/T790M/C797S, purchased from Kyinno Biotechnology Co., Ltd. 1640 medium, fetal bovine serum (FBS), Penicillin-Streptomyces, and GlutaMAX-I Supplement, purchased from GIBCO.
as §1, §2
1) Ba/F3_Del19/T790M/C797S cells were seeded in a 384-well plate at a density of 700 cells/well with 30 μL/well.
as §3, §4, §5
Data analysis was performed using GraphPad Prism 6 software to give the IC50 for compounds.

[3] = BaF3, cell proliferation, 72 h, CellTiter-Glo, read-out: Ba/F3 (L858R/T790M/C797S) IC50
[4] = A-431, cell proliferation, 72 h, CellTiter-Glo, read-out: A431 EGFR WT IC50
[5] = BaF3, cell proliferation, 72 h, CellTiter-Glo, read-out: Ba/F3 (Del19/T790M/C797S) IC50
[6] = BaF3, 72 h, read-out: Ba/F3 (L858R/T790M/C797S) IC50(nM)
[7] = A-431, 72 h, read-out: A431 EGFR WT IC50(nM)
[8] = BaF3, 72 h, read-out: Ba/F3 (Del19/T790M/C797S) IC50(nM)

EGFR WT (wild type EGFR), sequence (P00533 25-1210): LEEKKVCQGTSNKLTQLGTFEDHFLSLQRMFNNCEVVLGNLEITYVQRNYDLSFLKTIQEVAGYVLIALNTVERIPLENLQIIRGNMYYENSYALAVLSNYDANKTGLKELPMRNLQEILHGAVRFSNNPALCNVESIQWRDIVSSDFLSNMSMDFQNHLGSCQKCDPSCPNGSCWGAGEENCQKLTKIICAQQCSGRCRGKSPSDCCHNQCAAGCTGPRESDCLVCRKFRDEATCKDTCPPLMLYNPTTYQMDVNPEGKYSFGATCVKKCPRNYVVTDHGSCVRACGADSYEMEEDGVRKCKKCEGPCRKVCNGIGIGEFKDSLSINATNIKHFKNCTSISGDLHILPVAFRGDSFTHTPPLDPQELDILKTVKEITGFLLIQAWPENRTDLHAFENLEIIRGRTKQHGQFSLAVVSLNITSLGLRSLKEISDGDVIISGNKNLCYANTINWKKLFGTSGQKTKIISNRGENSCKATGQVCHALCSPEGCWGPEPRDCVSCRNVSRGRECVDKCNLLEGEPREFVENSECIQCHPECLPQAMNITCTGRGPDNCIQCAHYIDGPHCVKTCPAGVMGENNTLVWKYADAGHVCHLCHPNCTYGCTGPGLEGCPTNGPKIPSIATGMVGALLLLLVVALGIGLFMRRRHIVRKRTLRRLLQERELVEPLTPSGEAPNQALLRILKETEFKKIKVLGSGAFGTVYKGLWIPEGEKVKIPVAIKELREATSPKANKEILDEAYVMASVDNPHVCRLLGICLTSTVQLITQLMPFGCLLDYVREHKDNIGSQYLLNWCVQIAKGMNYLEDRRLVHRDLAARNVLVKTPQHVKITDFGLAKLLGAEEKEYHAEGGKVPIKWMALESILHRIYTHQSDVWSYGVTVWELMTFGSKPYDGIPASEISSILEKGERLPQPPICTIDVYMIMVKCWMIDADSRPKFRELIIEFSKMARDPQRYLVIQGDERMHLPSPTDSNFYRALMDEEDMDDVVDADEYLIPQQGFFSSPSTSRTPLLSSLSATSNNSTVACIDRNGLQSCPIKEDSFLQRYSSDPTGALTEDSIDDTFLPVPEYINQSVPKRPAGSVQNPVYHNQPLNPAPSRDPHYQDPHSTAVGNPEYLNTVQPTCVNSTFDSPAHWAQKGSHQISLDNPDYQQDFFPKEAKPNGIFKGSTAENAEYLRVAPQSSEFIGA

| Structure (SMILES) | IC50 (EGFR WT (wild type EGFR)) | IC50 [1, 3] | IC50 (A431 cells (EGFR WT); [4]) | IC50 [2, 5] | IC50 [1, 6] | IC50 (A431 cells (EGFR WT); [7]) | IC50 [2, 8] |
| --- | --- | --- | --- | --- | --- | --- | --- |
| COc1cc2c(cc1Nc1ncc(Br)c(Nc3ccc4nccnc4c3P(C)(C)=O)n1)-c1cnn(C)c1CN(C(C)C)C2 [Compound 72] | 1 to 10 nM |  |  |  | 10 to 50 nM | 50 to 100 nM | < 10 nM |
| COc1cc2c(cc1Nc1ncc(Br)c(Nc3ccc4nccnc4c3P(C)(C)=O)n1)-c1cnn(C)c1CCN2C(C)=O [Compound 15] | 10 to 50 nM | 10 to 50 nM | 100 to 1000 nM | < 10 nM |  |  |  |
| COc1cc2c(cc1Nc1ncc(Br)c(Nc3ccc4nccnc4c3C(=O)N(C)C)n1)-c1cnn(C)c1CCN2C(C)C [Compound 109] | 1 to 10 nM |  |  |  | 10 to 50 nM | 100 to 1000 nM | 10 to 50 nM |
| COc1cc2c(cc1Nc1ncc(Br)c(Nc3ccc4nccnc4c3NC(C)=O)n1)-c1cnn(C)c1CCN2C(C)C [Compound 106] | 1 to 10 nM | 10 to 50 nM | 100 to 1000 nM | < 10 nM |  |  |  |
| COc1cc2c(cc1Nc1ncc(Br)c(Nc3ccccc3P(C)(C)=O)n1)-c1cnn(C)c1COC2 [Compound 46] | 10 to 50 nM | 10 to 50 nM | 100 to 1000 nM | 10 to 50 nM |  |  |  |
| COc1cc2c(cc1Nc1ncc(Br)c(Nc3ccccc3P(C)(C)=O)n1)-c1cnn(C3CCN(C)CC3)c1CCN2C(C)C [Compound 75] | 1 to 10 nM | 50 to 100 nM | 100 to 1000 nM | 10 to 50 nM |  |  |  |

The next lines start with results.

| IC50 (EGFR WT (wild type EGFR)) | IC50 [1, 3] | IC50 (A431 cells (EGFR WT); [4]) | IC50 [2, 5] | Structure (SMILES) | IC50 [1, 6] | IC50 (A431 cells (EGFR WT); [7]) | IC50 [2, 8] |
| --- | --- | --- | --- | --- | --- | --- | --- |
| 10 to 50 nM | 50 to 100 nM | 100 to 1000 nM | 10 to 50 nM | COc1cc2c(cc1Nc1ncc(Br)c(Nc3ccccc3P(C)(C)=O)n1)-c1cnn(C)c1CCC2 [Compound 38] |  |  |  |
| 1 to 10 nM | < 10 nM | 100 to 1000 nM | < 10 nM | COc1cc2c(cc1Nc1ncc(C)c(Nc3ccc4nccnc4c3NS(C)(=O)=O)n1)-c1cnn(C)c1CCN2C(C)C [Compound 104] |  |  |  |
| 10 to 50 nM | 10 to 50 nM | 100 to 1000 nM | 10 to 50 nM | COc1cc2c(cc1Nc1ncc(Br)c(Nc3ccccc3P(C)(C)=O)n1)-c1ccnn1CCN2C [Compound 29] |  |  |  |
| 10 to 50 nM | 10 to 50 nM | > 1000 nM | 10 to 50 nM | COc1cc2c(cc1Nc1ncc(Br)c(Nc3cccc4c3NS(=O)(=O)C4)n1)-c1cnn(C)c1CCN2C(C)C [Compound 132] |  |  |  |
| 1 to 10 nM | 10 to 50 nM | 100 to 1000 nM | < 10 nM | CCN1CCc2c(cnn2C)-c2cc(Nc3ncc(C)c(Nc4ccccc4P(C)(C)=O)n3)c(OC)cc21 [Compound 19] |  |  |  |
| 10 to 50 nM | 10 to 50 nM | 100 to 1000 nM | 10 to 50 nM | COc1cc2c(cc1Nc1ncc(Br)c(Nc3ccccc3P(C)(C)=O)n1)-c1cnn(C)c1CNC2 [Compound 49] |  |  |  |
| 1 to 10 nM | < 10 nM | 100 to 1000 nM | < 10 nM | COc1cc2c(cc1Nc1ncc(Br)c(Nc3ccc4nccnc4c3P(C)(C)=O)n1)-c1cnn(C)c1CN(C)C2 [Compound 11] |  |  |  |
| 1 to 10 nM | 10 to 50 nM | 50 to 100 nM | < 10 nM | COc1cc2c(cc1Nc1ncc(Br)c(Nc3ccccc3P(C)(C)=O)n1)-c1cnn(C)c1CCN2C1CCN(C)CC1 [Compound 47] |  |  |  |
